This is an account of results in patent publication US9687480B2, “Chiral 1-(4-methylphenylmethyl)-5-oxo-{N-[(3-t-butoxycarbonyl-aminomethyl)]-piperidin-1-yl)-pyrrolidine as inhibitors of collagen induced platelet activation and adhesion” (Council of Scientific & Industrial Research, priority 2011, dated 2017).

The subject of assay [1] is human platelet rich plasma (Convulxin, GP VI agonist). The assay is described as follows: Convulxin induced platelet aggregation, human platelet rich plasma (in vitro). It is filed as cell-based. As to conditions: at 500 μM. Here is the method:
The reaction was allowed to proceed for at least 5 min, and the extent of aggregation was expressed in light-transmission units (Ivandic B T, Schlick P, Starltz P, Kurz K, Katas H A, Giannitsis E. Determination of clopidogrel resistance by whole blood platelet aggregometry and inhibitors of the P2Y12 receptor. Clinical Chemistry 2006: 52:383-88).
The percentage of aggregation was calculated by using following formula: Percent Aggregation=A/B×100 Where, A is the number of division traversed by the label on chart in the presence of Inducer & B is the total number of divisions (80). Platelet Aggregation Studies (FIG. 3) a) Platelet Aggregation (Human, In Vitro) (FIG. 3a (i) (ii) (iii))

The test system of assay [2] is mouse platelets. The assay is described as follows: Platelet adhesion over collagen matrix (mice, ex vivo). It is filed as in vivo. As to conditions: oral route, compound 6 10, 30, 100 μM/kg, aspirin 100 μM/kg. The text has this:
FIG. 4b: Adhesion of mouse platelets on collagen matrix as observed under fluorescence microscope 40× (ex vivo method). Different pictures show the different treatment performed. Washed murine platelets (2×10^6/ml) were obtained from animals pretreated with the compound (compound 6) (different doses) and seeded on BSA or Collagen (fibrillar) coated cover slips (A, B). Platelets from untreated animals were allowed to adhere on uncoated and BSA coated cover slip respectively to delineate the possibility of non specific binding. C, D. control platelets were adhered on collagen coated cover slip (control). E. F&G. Platelets obtained from animals pre-treated with compound 6 (10 μM/kg, 30 μM/kg & 100 μM/kg) respectively were adhered on collagen coated cover slip. H, I. Platelets from Aspirin (100 μM/kg) & Clopidogrel treated (100 μM/kg) animals resp. (standard Drugs) and adhered on collagen coated cover slip (n=5, 5 animals/group/experiment).

Assay [3] has as its system human platelets. The assay is described as follows: Intracellular calcium mobilization in Fura-2 loaded platelets stimulated by collagen. The assay is classed as cell-based. As to conditions: Fura-2 loaded human platelets, collagen 5 μg/ml. The protocol: Ca^+2 concentration ([Ca^+2]i) were monitored by Fura-2AM fluorescence in the platelets (Fowler C J. Tiger G Calibration of Fura-2 signals introduces errors into measurement of thrombin-stimulated calcium mobilization in human platelets. Clinica Chimica Acta. 1997; 265:247-261). Human PRP was incubated with 5 μM Fura-2 AM (Sigma) for 60 minutes at 37° C. After 2 washes with the wash buffer, the platelets were resuspended at 2×10^6 cells/mL with the Tyrode's-HEPES buffer. After incubating with various concentrations of compound for 5 minutes, the platelets were stimulated with collagen (5 μg/mL)(the concentration of collagen was varied in accordance with cell number). The Fura-2 fluorescence was measured for 5 minutes at an excitation wavelength of 340/380 nm and emission wavelength of 500 nm (Yoshida S., Sudo T., Niimi M., Tao L., Sun B., Kambayashi J., Watanabe H., Luo E., and Matsuoka H. Inhibition of collagen-induced platelet aggregation by anopheline antiplatelet protein, a saliva protein from a malaria vector mosquito. Blood 2007; 111: 2007-201) using a fluorescence spectrophotometer (VARIAN, Cary Eclipse).

Assay [4] has as its system collagen stimulated platelets. The assay is described as follows: Immunoblotting: tyrosine phosphorylation of platelet proteins after collagen stimulation. It is filed as cell-based, human. The note with it: 10-100 μM. Here is the method:
Platelet rich plasma (2×10^8/ml) was pre-incubated with test compound (10-100 μM) or the isovolumetric solvent control (0.5% DMSO) for 5 minutes, followed by the addition of collagen, to trigger platelet activation. The reaction was stopped by the addition of ice cold stop buffer (5 mM EDTA, 5 mM EGTA) and the suspensions were centrifuged at 800×g for 10 minutes and then immediately resuspended in 300 μl of lysis buffer (50 mM HEPES, 5 mM EDTA, 50 mM NaCl, 1% Triton X-100, 10 μg/ml aprotinin, 1 mM PMSF, 10 μg/ml leupeptin, 10 mM NaF, 1 mM sodium orthovanadate, and 5 mM sodium pyrophosphate) (Ezumi Y. Shindoh K, Tsuji M, and Takayama H Physical and Functional Association of the Src Family Kinases Fyn and Lyn with the Collagen Receptor Glycoprotein VI-Fc Receptorg Chain Complex on Human Platelets. J. Exp. Med. 1998; 188: 287-[…]). Lysates were centrifuged at 12,000×g for 5 minutes, after which the supernatants were dissolved in Laemmeli sample buffer (Laemmeli, 1970). […] Immunoreactive bands were detected by chemiluminescence using the ECL-enhanced chemiluminescence system (Inoue K, Ozaki Y, Satoh K, u Y, Yatomi Y, Shin Y and Morita T Signal Transduction Pathways Mediated by Glycoprotein Ia/IIa in Human Platelets: Comparison with those of Glycoprotein VI. Biochem. I and Biophys. Res. Comm. 1999; 256: 114-120).

As for `Cc1ccc(CN2C(=O)CC[C@H]2C(=O)N2CCC[C@@H](CNC(=O)OC(C)(C)C)C2)cc1` [Compound 6], the “inhibition of convulxin induced platelet aggregation” value in assay [1] is on record as “does not significantly inhibit”. Moreover, the “platelet adhesion (ex vivo) over collagen surface” value in assay [2] is recorded as “dose dependent inhibition”. Further, the “calcium mobilization ([Ca2+]i) during collagen stimulation” value in assay [3] is recorded as “concentration dependent inhibition”. The “tyrosine phosphorylation of platelet proteins” value in assay [4] is “attenuated the tyrosine phosphorylation”.
